The record followed here is ChEMBL document CHEMBL1158794, “A cytotoxic xanthone dimer from the entomopathogenic fungus Aschersonia sp. BCC 8401” (J Nat Prod, 2005).

In one assay the test system is NCI-H187. Kind of assay: Cytotoxicity against human NCI-H187 cells by SRB assay. In kind it is functional, cell-based. (In general: The SRB assay estimates cell density from bound dye.)
Assay [1] is described as follows: Cytotoxicity against human BC cells by SRB assay. In kind it is functional, cell-based.
For the next assay, the system named is Vero. Kind of assay: Cytotoxicity against african green monkey Vero cells by SRB assay. As to conditions: Chlorocebus sabaeus. In kind it is cell-based.
For the next assay, the system named is Plasmodium falciparum. Kind of assay: Antiplasmodial activity against multidrug-resistant Plasmodium falciparum K1 by [3H]hypoxanthine uptake. In kind it is functional, organism-based.
Another assay deals with KB. Kind of assay: Cytotoxicity against human KB cells by SRB assay. In kind it is functional, cell-based.

≈ marks a conversion by molar mass, not a printed value.

Usually IC50 stands for the point on the concentration scale where inhibition reaches its midpoint. Take `CO[C@H]1CC=C2C(=O)c3c(cc(C)c(-c4c(C)cc5c(c4O)C(=O)C4=CC[C@H](OC)[C@@H](O)[C@]4(C)O5)c3O)O[C@@]2(C)[C@@H]1O` [ASCHERXANTHONE A]: the IC50 in the assay with NCI-H187 came out at 0.16 µg/mL (≈ 0.277 µM); in assay [1] it was 1.7 µg/mL (≈ 2.94 µM); with Vero it was 0.8 µg/mL (≈ 1.38 µM); in the assay with Plasmodium falciparum, 0.2 µg/mL (≈ 0.346 µM); in the assay on KB, 1.7 µg/mL (≈ 2.94 µM).
